These results are taken from BindingDB's records for doi:10.1021/acs.jmedchem.3c00926 (Yale University, 2023).

The target of the first experiment is T1, Signal transducer and activator of transcription 3 (Homo sapiens, UniProt P40763). The experiment is described as follows: Inhibition of IL-23 induced STAT3 phosphorylation in human KIT225 cells by AlphaLISA assay. In general terms: Bead proximity is the source of the signal in Alpha formats.
T1 sequence (P40763 whole entry): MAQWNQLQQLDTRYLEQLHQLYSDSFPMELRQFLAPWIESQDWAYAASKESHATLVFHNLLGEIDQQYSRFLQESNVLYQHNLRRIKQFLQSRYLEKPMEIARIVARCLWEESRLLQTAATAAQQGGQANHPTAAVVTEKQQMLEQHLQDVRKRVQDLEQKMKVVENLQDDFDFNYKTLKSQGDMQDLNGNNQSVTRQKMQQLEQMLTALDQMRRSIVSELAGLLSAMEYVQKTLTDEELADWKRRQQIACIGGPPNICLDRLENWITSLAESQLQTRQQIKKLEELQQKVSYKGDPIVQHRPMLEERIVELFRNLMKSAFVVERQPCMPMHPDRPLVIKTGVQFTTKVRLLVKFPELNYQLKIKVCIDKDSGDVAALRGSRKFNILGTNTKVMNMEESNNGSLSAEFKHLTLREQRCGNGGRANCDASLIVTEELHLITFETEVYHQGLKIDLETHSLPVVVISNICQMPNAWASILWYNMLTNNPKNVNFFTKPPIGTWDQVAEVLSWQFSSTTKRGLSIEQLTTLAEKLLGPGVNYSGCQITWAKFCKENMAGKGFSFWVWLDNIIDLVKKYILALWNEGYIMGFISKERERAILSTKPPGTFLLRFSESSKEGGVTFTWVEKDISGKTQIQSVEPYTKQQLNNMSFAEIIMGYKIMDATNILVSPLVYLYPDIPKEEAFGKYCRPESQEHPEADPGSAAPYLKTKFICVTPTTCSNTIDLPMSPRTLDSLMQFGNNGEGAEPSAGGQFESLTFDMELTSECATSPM
As for `[2H]C([2H])([2H])NC(=O)c1nnc(NC(=O)C2CC2)cc1Nc1ccccc1S(C)(=O)=O`, the IC50 (usually the concentration needed to halve the response being measured) amounted to 15 nM.

In the case of `N#Cc1cc(Nc2cc(NC3CC3)c3ncc(C(N)=O)n3n2)cc(C(F)(F)F)c1`, the 50% inhibitory concentration (IC50) worked out at 8200 nM.

Turning to `[2H]C([2H])([2H])NC(=O)c1nnc(NC(=O)C2CC2)cc1Nc1cccc(-c2ncn(C)n2)c1OC` [Bms-986165], the midpoint of inhibition, the IC50, lay at 89 nM. This IC50 lies about 92-fold lower than the previous one.

Regarding `CNC(=O)c1cnc(Nc2ccc(F)cn2)cc1Nc1ccccc1S(C)(=O)=O`, half-maximal inhibition (IC50) was put at 230 nM.

`CNC(=O)c1cnc(Nc2ccc(C#N)cn2)cc1Nc1cccc(-c2ncn(C)n2)c1OC` returned an IC50 of 13 nM.

The compound `NC(=O)c1ccccc1Nc1cc(Nc2ccc(F)cn2)ncc1C(N)=O` registered an IC50 of 180 nM. This IC50 is about 14-fold higher than that of the compound before.

For another experiment, the target named is T1, Signal transducer and activator of transcription 3. Kind of experiment: Inhibition of IL-23 induced STAT3 phosphorylation in human Jurkat cells incubated for 30 mins by microplate reader analysis.
Consider `NC(=O)c1ccccc1Nc1cc(Nc2ccc(F)cn2)ncc1C(N)=O`, for which the IC50 is 89 nM.
